From patent US11802120B2, “Fused cyclic urea derivatives as CRHR2 antagonist” (RaQualia Pharma Inc., priority 2018, dated 2023)

Each compound was assayed against T1, human CRHR2-alpha (Homo sapiens, UniProt Q13324) (assay: cAMP functional assay for human CRHR2 (LANCE Ultra cAMP, TR-FRET)). Conditions: CHO-K1 cells expressing human CRHR2-alpha, agonist human urocortin2 at EC80, cAMP; read-out: IC50 against CRHR2.
T1 sequence (Q13324 1-411): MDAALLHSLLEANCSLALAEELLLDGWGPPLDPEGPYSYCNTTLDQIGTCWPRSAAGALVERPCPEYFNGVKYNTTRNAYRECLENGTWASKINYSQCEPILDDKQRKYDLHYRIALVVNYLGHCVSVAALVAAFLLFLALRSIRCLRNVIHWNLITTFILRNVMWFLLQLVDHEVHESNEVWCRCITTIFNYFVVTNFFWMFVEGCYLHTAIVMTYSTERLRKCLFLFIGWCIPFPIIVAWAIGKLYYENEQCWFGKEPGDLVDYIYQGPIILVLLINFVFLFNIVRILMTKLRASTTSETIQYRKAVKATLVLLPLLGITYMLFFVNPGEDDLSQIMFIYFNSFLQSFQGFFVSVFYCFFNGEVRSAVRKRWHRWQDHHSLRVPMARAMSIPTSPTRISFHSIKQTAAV
Assay type: cell-based
Summary of the method: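 Antagonism measured in CHO-K1 cells stably expressing the receptor, serum-starved 7 h then cryopreserved. Thawed cells in HBSS buffer with 0.1% BSA, 0.5 mM IBMX, 5 mM Hepes pH 7.4 were preincubated with compound 30 min at 25° C, then stimulated 30 min with EC80 agonist: urocortin2 for CRHR2, CRF for CRHR1.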

**Q.** `Cc1ncc(Cl)cc1C(=O)N[C@H]1CC[C@H](Cn2c(=O)n(-c3ccc(-c4cnco4)cn3)c3ccccc32)CC1` [Example 489, 5-chloro-2-methyl-N-((1r,4r)-4-((3-(5-(oxazol-5-yl)pyridin-2-yl)-2-oxo-2,3-dihydro-1H-benzo[d]imidazol-1-yl)methyl)cyclohexyl)nicotinamide] was tested. Which IC50 did it give?
**A.** < 300 nM

**Q.** With `Cn1cc(-c2cncc(-n3c(=O)n(C[C@H]4CC[C@H](NC(=O)c5cc(Cl)cnc5C(F)F)CC4)c4ccccc43)c2)cn1` [Example 682, 5-chloro-2-(difluoromethyl)-N-((1r,4r)-4-((3-(5-(1-methyl-1H-pyrazol-4-yl)pyridin-3-yl)-2-oxo-2,3-dihydro-1H-benzo[d]imidazol-1-yl)methyl)cyclohexyl)nicotinamide] as the compound, how does the IC50 read?
**A.** < 300 nM

**Q.** How did the IC50 turn out when `O=C(N[C@H]1CC[C@H](Cn2c(=O)n(-c3ccc4cccnc4c3)c3ccccc32)CC1)c1cc(Cl)cnc1C(F)F` [Example 422, 5-chloro-2-(difluoromethyl)-N-((1r,4r)-4-((2-oxo-3-(quinolin-7-yl)-2,3-dihydro-1H-benzo[d]imidazol-1-yl)methyl)cyclo-hexyl)nicotinamide] was run?
**A.** < 300 nM

**Q.** Which IC50 does the source give for `O=C(N[C@H]1CC[C@H](Cn2c(=O)n(-c3cccc(-c4cn[nH]c4)c3)c3ccccc32)CC1)c1cc(Cl)cnc1C(F)F` [Example 697, N-((1r,4r)-4-((3-(3-(1H-pyrazol-4-yl)phenyl)-2-oxo-2,3-dihydro-1H-benzo[d]imidazol-1-yl)methyl)cyclohexyl)-5-chloro-2-(difluoromethyl)nicotinamide] here?
**A.** < 300 nM

**Q.** For `Cc1ncc(Cl)cc1C(=O)N[C@H]1CC[C@H](Cn2c(=O)n(C3Cc4ccccc4C3)c3ccccc32)CC1` [Example 184, 5-chloro-N-((1r,4r)-4-((3-(2,3-dihydro-1H-inden-2-yl)-2-oxo-2,3-dihydro-1H-benzo [d]imidazol-1-yl)methyl)cyclohexyl)-2-methyl-nicotinamide], which IC50 is on record?
**A.** < 300 nM

**Q.** `Cc1ncc(Cl)cc1C(=O)N[C@H]1CC[C@H](Cn2c(=O)n(-c3ccc(C(=O)Nc4ccn(C)n4)nc3)c3ccccc32)CC1` [Example 173, 5-(3-(((1r,4r)-4-(5-chloro-2-methylnicotinamido)cyclohexyl)methyl)-2-oxo-2,3-dihydro-1H-benzo[d]imidazol-1-yl)-N-(1-methyl-1H-pyrazol-3-yl)picolinamide] was tested. Which IC50 did it give?
**A.** < 300 nM

**Q.** For `CCOc1ccc(-n2c(=O)n(C[C@H]3CC[C@H](NC(=O)c4cc(Cl)cnc4C)CC3)c3ccccc32)cn1` [Example 36, 5-chloro-N-((1r,4r)-4-((3-(6-ethoxypyridin-3-yl)-2-oxo-2,3-dihydro-1H-benzo[d]imidazol-1-yl)methyl)cyclohexyl)-2-methylnicotinamide], which IC50 is on record?
**A.** < 300 nM

**Q.** For `Cc1ncc(Cl)cc1C(=O)N[C@H]1CC[C@H](Cn2c(=O)n(-c3ccc4c(=O)[nH]cnc4c3)c3ccccc32)CC1` [Example 305, 5-chloro-2-methyl-N-((1r,4r)-4-((2-oxo-3-(4-oxo-3,4-dihydroquinazolin-7-yl)-2,3-dihydro-1H-benzol[d]imidazol-1-yl)methyl)cyclohexyl)nicotinamide], which IC50 is on record?
**A.** < 300 nM

**Q.** Which IC50 does the source give for `N#Cc1ccccc1-n1c(=O)n(C[C@H]2CC[C@H](NC(=O)c3cc(Cl)cnc3C(F)(F)F)CC2)c2ccccc21` [Example 291, 5-chloro-N-((1r,4r)-4-((3-(2-cyanophenyl)-2-oxo-2,3-dihydro-1H-benzo[d]imidazol-1-yl)methyl)cyclo-hexyl)-2-(trifluoromethyl) nicotinamide] here?
**A.** < 300 nM

**Q.** `Cc1ncc(Cl)cc1C(=O)N[C@H]1CC[C@H](Cn2c(=O)n(-c3ccc4cncn4c3)c3ccccc32)CC1` [Example 274, 5-chloro-N-((1r,4r)-4-((3-(imidazo[1,5-a]pyridin-6-yl)-2-oxo-2,3-dihydro-1H-benzo [d]imidazol-1-yl)methyl)cyclohexyl)-2-methylnico-tinamide] was tested. Which IC50 did it give?
**A.** < 300 nM

**Q.** For `Cc1ccc(-n2c(=O)n(C[C@H]3CC[C@H](NC(=O)c4cc(Cl)cnc4C(F)(F)F)CC3)c3ccccc32)cn1` [Example 265, 5-chloro-N-((1r,4r)-4-((3-(6-methylpyridin-3-yl)-2-oxo-2,3-dihydro-1H-benzo [d]imidazol-1-yl)methyl)cyclohexyl)-2-(trifluoro-methyl)nicotinamide], which IC50 is on record?
**A.** < 300 nM

**Q.** With `CC(=O)Nc1cc(C)c(-n2c(=O)n(C[C@H]3CC[C@H](NC(=O)c4cc(Cl)cnc4C(F)F)CC3)c3ccccc32)cn1` [Example 559, N-((1r,4r)-4-((3-(6-acetamido-4-methylpyridin-3-yl)-2-oxo-2,3-dihydro-1H-benzo[d]imidazol-1-yl)methyl)cyclo-hexyl)-5-chloro-2-(difluoro-methyl)nicotinamide] as the compound, how does the IC50 read?
**A.** < 300 nM

**Q.** `O=C(N[C@H]1CC[C@H](Cn2c(=O)n(-c3ccc(N4CCCC4=O)nc3)c3ccccc32)CC1)c1cc(Cl)cnc1C(F)(F)F` [Example 641, 5-chloro-N-((1r,4r)-4-((2-oxo-3-(6-(2-oxopyrrolidin-1-yl)pyridin-3-yl)-2,3-dihydro-1H-benzo[d]imidazol-1-yl)methyl)cyclohexyl)-2-(trifluoromethyl) nicotinamide] was tested. Which IC50 did it give?
**A.** < 300 nM

**Q.** For `CNC(=O)c1ccc(-n2c(=O)n(C[C@H]3CC[C@H](NC(=O)c4cc(Cl)cnc4C4CC4)CC3)c3ccccc32)cn1` [Example 317, 5-(3-(((1r,4r)-4-(5-chloro-2-cyclopropylnicotinamido)cyclohexyl)methyl)-2-oxo-2,3-dihydro-1H-benzo[d]imidazol-1-yl)-N-methyl-picolinamide], which IC50 is on record?
**A.** < 300 nM

**Q.** How did the IC50 turn out when `COc1ccc(-n2c(=O)n(C[C@H]3CC[C@H](NC(=O)c4cc(Cl)cnc4C)CC3)c3cccnc32)cc1OC1CCCC1` [Example 401, 5-chloro-N-((1r,4r)-4-((3-(3-(cyclopentyloxy)-4-methoxy-phenyl)-2-oxo-2,3-dihydro-1H-imidazo[4,5-b]pyridin-1-yl)methyl)cyclohexyl)-2-methylnicotinamide] was run?
**A.** < 300 nM

**Q.** Which IC50 does the source give for `O=C(N[C@H]1CC[C@H](Cn2c(=O)n(-c3cnc4ncccc4c3)c3ccccc32)CC1)c1cc(Cl)cnc1C(F)F` [Example 393, N-((1r,4r)-4-((3-(1,8-naph-thyridin-3-yl)-2-oxo-2,3-dihydro-1H-benzo[d]imidazol-1-yl)methyl)cyclohexyl)-5-chloro-2-(difluoromethyl) nicotinamide] here?
**A.** < 300 nM

**Q.** `Cc1cc(N2CCCC2=O)ncc1-n1c(=O)n(C[C@H]2CC[C@H](NC(=O)c3cc(Cl)cnc3C(F)F)CC2)c2ccccc21` [Example 561, 5-chloro-2-(difluoromethyl)-N-((1r,4r)-4-((3-(4-methyl-6-(2-oxopyrrolidin-1-yl)pyridin-3-yl)-2-oxo-2,3-dihydro-1H-benzo[d]imidazol-1-yl)methyl)cyclohexyl) nicotinamide] was tested. Which IC50 did it give?
**A.** < 300 nM

**Q.** For `Cc1ccc(-n2c(=O)n(C[C@H]3CC[C@H](NC(=O)c4cc(Cl)cnc4C(F)F)CC3)c3ccccc32)c(C)n1` [Example 376, 5-chloro-2-(difluoromethyl)-N-((1r,4r)-4-((3-(2,6-dimethyl-pyridin-3-yl)-2-oxo-2,3-dihydro-1H-benzo[d]imidazol-1-yl)methyl)cyclohexyl) nicotinamide], which IC50 is on record?
**A.** < 300 nM

**Q.** Which IC50 does the source give for `Cc1ncc(Cl)cc1C(=O)N[C@H]1CC[C@H](Cn2c(=O)n(-c3ccnc(-c4cnco4)c3)c3ccccc32)CC1` [Example 521, 5-chloro-2-methyl-N-((1r,4r)-4-((3-(2-(oxazol-5-yl)pyridin-4-yl)-2-oxo-2,3-dihydro-1H-benzo[d]imidazol-1-yl)methyl)cyclohexyl)nicotinamide] here?
**A.** < 300 nM

**Q.** Which IC50 does the source give for `O=C(N[C@H]1CC[C@H](Cn2c(=O)n(Cc3cccnc3)c3ccccc32)CC1)c1cc(Cl)cnc1C(F)(F)F` [Example 284, 5-chloro-N-((1r,4r)-4-((2-oxo-3-(pyridin-3-ylmethyl)-2,3-dihydro-1H-benzo[d]imidazol-1-yl)methyl)cyclohexyl)-2-(trifluoromethyl)nicotinamide] here?
**A.** < 300 nM

**Q.** `O=C(NC1CC1)c1ccc(-n2c(=O)n(C[C@H]3CC[C@H](NC(=O)c4cc(Cl)cnc4C(F)F)CC3)c3ccccc32)cn1` [Example 585, 5-(3-(((1r,4r)-4-(5-chloro-2-(difluoromethyl)nicotinamido)cyclohexyl)methyl)-2-oxo-2,3-dihydro-1H-benzo[d]imidazol-1-yl)-N-cyclopropyl-picolinamide] was tested. Which IC50 did it give?
**A.** < 300 nM

**Q.** How did the IC50 turn out when `Cc1ncc(Cl)cc1C(=O)N[C@H]1CC[C@H](Cn2c(=O)n(-c3ccc4cncnc4c3)c3ccccc32)CC1` [Example 443, 5-chloro-2-methyl-N-((1r,4r)-4-((2-oxo-3-(quinazolin-7-yl)-2,3-dihydro-1H-benzo[d]imidazol-1-yl)methyl)cyclo-hexyl)nicotinamide] was run?
**A.** < 300 nM

**Q.** With `Cc1ncc(Cl)cc1C(=O)N[C@H]1CC[C@H](Cn2c(=O)n(-c3ccc4c(C(=O)N(C)C)noc4c3)c3ccccc32)CC1` [Example 245, 6-(3-(((1r,4r)-4-(5-chloro-2-methylnicotinamido)cyclohexyl)methyl)-2-oxo-2,3-dihydro-1H-benzol[d]imidazol-1-yl)-N,N-dimethylbenzo[d]isoxazole-3-carboxamide] as the compound, how does the IC50 read?
**A.** < 300 nM

**Q.** Which IC50 does the source give for `Cc1ncc(Cl)cc1C(=O)N[C@H]1CC[C@H](Cn2c(=O)n(-c3cccc(-n4ccnc4)n3)c3ccccc32)CC1` [Example 520, N-((1r,4r)-4-((3-(6-(1H-imidazol-1-yl)pyridin-2-yl)-2-oxo-2,3-dihydro-1H-benzo[d]imidazol-1-yl)methyl)cyclo-hexyl)-5-chloro-2-methyl-nicotinamide] here?
**A.** < 300 nM
